Experimental data published in US20210395327A1, “Growth Hormone-Releasing Hormone Antagonists and Uses Thereof” (United States Government As Represented By The Department …, priority 2019, published 2021).
Non-standard residues stand in square brackets, D forms with d. Residues, ends and D or L forms follow the SMILES beside them. *: point of attachment. Phenylacetyl(2,3,4,5,6-F5) = O=C(Cc1c(F)c(F)c(F)c(F)c1F)*; Phe(F5) = N[C@@H](Cc1c(F)c(F)c(F)c(F)c1F)C(=O)O; Phe(4-Cl) = N[C@@H](Cc1ccc(Cl)cc1)C(=O)O; hArg = N=C(N)NCCCC[C@H](N)C(=O)O; 12Ado = NCCCCCCCCCCCC(=O)O; Nle = CCCC[C@H](N)C(=O)O; Abu = CC[C@H](N)C(=O)O

Key:
[1] = test system: ovarian cancer SK-OV-3 xenograft; experiment: Xenograft tumor growth in nude mice, SK-OV-3; type: in vivo; conditions: Table 4L, Ovarian Ca SK-OV-3, 7 weeks; for % Inhibition: vs control
Experimental: (§1) The peptides' activity was compared with GHRH antagonist MIA-602. All statistical analyzses were performed from comparing GHRA antagonists to non-treated tumor (control).
(§2) Peptides and chemicals. GHRH antagonists MIA-602 and AVR-GHRH antagonists (see Table 2 above) were synthesized by solid phase methods and purified by HPLC. The peptides were dissolved in DMSO and further diluted in 10% 1,2-propanediol. The final concentration of peptides was 50 µg/ml in 10% 1,2-propanediol containing 0.1% of DMSO.
(§3) Cell culture. Human cancer cell lines including pancreatic (PANC-1 and CFPAC-1), lung (HCC827 and H460), stomach (NCI-N87), prostate (PC3), brest (MX-1 and HCC-1806), colorectal (HT-29), and ovarian (SK-OV-3 and OVCAR-3) were obtained from the American Type Culture Collection (ATCC) and cultured at 37° C. in a humidified 95% air/5% CO2 atmosphere in the medium recommended by ATCC.
(§4) Xenograft models of human cancers in nude mice. Female athymic (NCr nu/nu) nude mice, 5- to 6-weeks-old, obtained from the Envigo labs (Tampa, Fla.), were housed in laminar airflow cabinets under pathogen-free conditions with a 12-h light/12-h dark schedule, and were fed autoclaved standard chow and water. To generate mice with xenografted tumors, tumor xenografts were initiated by subcutaneous (s.c.) injection of 107 human cancer cells into female nude mice. After about 4 weeks the resulting tumors were dissected and collected after removing necrosis tissues. The tumors were then cut into particles with size of 3 mm3 and transplanted s.c. by trocar needle into experimental animals. When tumors grew to the size of 50-60 mm3 (by volume), mice were randomized into groups and treated daily for 4-8 weeks by subcutaneous administration of 5 μg of GHRH antagonists MIA-602 or AVR-compounds (2-10 μg as indicated), or vehicle solutions (0.1% DMSO in 10% 1,2-propanediol) respectively. Tumor sizes were measured weekly.
(§5) Statistical analysis. One-way ANOVA followed by Bonferroni comparison were performed. Data are expressed as Mean±SEM. To determine statistical significance between animal groups, two-tailed Student's t-test was conducted. Differences were considered significant when p<0.05.
(§6) Results. […] FIG. 1A-N represents in vivo inhibition of tumor growth during the treatment with GHRH antagonist MIA-602 and selected AVR antagonists in nude mice xenografted with various human tumors including pancreatic cancer PANC-1 (FIG. 1A) and CFPAC-1 (FIG. 1I); lung cancer HCC827 (FIGS. 1B, C) and H460 (FIG. 1H); stomach cancer N87 (FIGS. 1D-F); colon cancer HT-29 (FIG. 1G); breast cancer MX-1 and HCC-1806 (FIGS. 1J, K); ovarian cancer SK-OV-3 and OVACAR-3 (FIGS. 1 L, M) and prostate cancer PC3 (FIG. 1N). See also Table 5.

[2] = test system: SK-OV-3 ovarian cancer cells; experiment: In vitro cell viability, SK-OV-3; type: cell-based, human; conditions: Table 3B; * at 2 μM for 72 H; MIA-602 = 1
Experimental: (§7) The inhibitory effects of the various synthesized GHRH antagonists were tested in cell proliferation assays in various human cancer cell lines including stomach cancer (KATOIII, N87), colon cancer (HT-29), urothelial cancer (J82, RT4), pancreatic cancer (PANC-1, CFPAC-1), prostatic cancer (PC3), breast cancer (MX-1, HCC1806), ovarian cancer (SK-OV-3, OVCAR-3) and lung cancer (HCC827, H460).
as §3, with “(NCI-N87 and KATOIII), urothelial (J82, RT4), prostatic” for “(NCI-N87), prostate”, “breast” for “brest”, “HCC 1806),” for “HCC-1806),”
(§8) In vitro cell viability. Cell viability was analyzed as follows: cancer cells including pancreatic (PANC-1 and CFPAC-1), lung (HCC827 and H460), stomach (NCI-N87 and KATOIII), urothelial (J82, RT4), prostatic (PC3) and breast (MX-1 and HCC 1806), colorectal (HT-29) and ovarian (SK-OV-3 and OVCAR-3) were grown on 96 well plates to ˜60% confluence, the cells were starved for 24 h in culture medium containing 0.5% FBS. Cells were then treated with GHRH antagonists MIA602 AVR compounds at concentrations of 1, 2.5 or 5 μM, or vehicle (0.1% DMSO) in quintuplicates for 72 hours. The medium was replaced every 48 hours. Cell viability was measured using CellTiter 96 aqueous one solution kit (Promega). Inhibitory effects of tested AVR compounds in comparison to that of MIA602 are presented as inhibitory potency.
(§9) Inhibitory effects of selected AVR compounds in comparison to that of MIA602 are presented as inhibitory potency (e.g., percentage of inhibition). […] The cell lines tested including lung cancer HCC827 (FIG. 2A), pancreatic cancer CFPAC-1 (FIG. 2B), stomach cancer N87 (FIG. 2C), colon cancer HT-29 (FIG. 2D), breast cancers MX-1 and HCC1806 (FIGS. 2 E, F). […]

[3] = test system: MX-1 breast cancer cells; experiment: In vitro cell viability, MX-1; type: cell-based, human; conditions: Table 3B; 5 μM for 72 H; MIA-602 = 1
How it was run: (§10)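 Potency is reported as percent inhibition of viability compared with the reference antagonist MIA602, measured with CellTiter 96 aqueous one solution reagent. Serum-starved cells (0.5% FBS, 24 h) were treated for 72 h, mostly at 5 μM, otherwise 2 μM.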

[4] = test system: HCC1806 breast cancer cells; experiment: In vitro cell viability, HCC1806; type: cell-based, human; conditions: Table 3B; 5 μM for 72 H; MIA-602 = 1
How it was run: as §10

[5] = test system: OVCAR-3 ovarian cancer cells; experiment: In vitro cell viability, OVCAR-3; type: cell-based, human; conditions: Table 3B; * at 2 μM for 72 H; MIA-602 = 1
Experimental: as §7
as §3, with “(NCI-N87 and KATOIII), urothelial (J82, RT4), prostatic” for “(NCI-N87), prostate”, “breast” for “brest”, “HCC 1806),” for “HCC-1806),”
as §8, §9

[6] = test system: pancreatic cancer PANC-1 xenograft; experiment: Xenograft tumor growth in nude mice, PANC-1; type: in vivo; conditions: Table 4A, Pancreatic Ca PANC-1, 7 weeks; for % Inhibition: vs control
Experimental: as §1, §2, §3, §4, §5, §6

## CCCC[C@H](NC(=O)[C@@H](NC(=O)[C@H](CC(=O)O)NC(=O)[C@H](CCC(N)=O)NC(=O)[C@H](CC(C)C)NC(=O)[C@H](CC(C)C)NC(=O)[C@H](CCCCN)NC(=O)[C@H](CCCNC(=N)N)NC(=O)[C@H](C)NC(=O)[C@H](CO)NC(=O)[C@H](CC(C)C)NC(=O)[C@H](CCC(N)=O)NC(=O)[C@H](CC)NC(=O)[C@H](CC(C)C)NC(=O)[C@@H](NC(=O)[C@H](CCCCN)NC(=O)[C@H](CCCNC(=N)N)NC(=O)[C@H](Cc1ccc(OC)cc1)NC(=O)[C@H](CCCCNC(=N)N)NC(=O)[C@H](C)NC(=O)[C@@H](NC(=O)[C@H](Cc1c(F)c(F)c(F)c(F)c1F)NC(=O)[C@@H](NC(=O)[C@H](C)NC(=O)[C@H](CC(=O)O)NC(=O)[C@@H](CCCNC(=N)N)NC(=O)[C@H](Cc1ccc(O)cc1)NC(=O)CCCCCCCCCCCNC(=O)Cc1c(F)c(F)c(F)c(F)c1F)[C@@H](C)CC)[C@@H](C)O)C(C)C)[C@@H](C)CC)C(=O)N[C@H](CCCNC(=N)N)C(=O)N[C@@H](CCCCNC(=N)N)C(=O)NCCCCCCCCCCCC(N)=O [AVR-352, 5FPhAC-Ada-Tyr-DArg-Asp-Ala-Ile-5FPhe-Thr-Ala-Har-Tyr(Me)-Arg-Lys-Val-Leu-Abu-Gln-Leu-Ser-Ala-Arg-Lys-Leu-Leu-Gln-Asp-Ile-Nle-DArg-Har-Ada-NH2] ({Phenylacetyl(2,3,4,5,6-F5)-12Ado}-Y[dR]DAI[Phe(F5)]TA[hArg]Y(Me)RKVL[Abu]QLSARKLLQDI[Nle][dR][hArg][12Ado]-NH2)
[1]; 2.5 μg/day s.c.
  Tumor Size (mm3): 718.4 mm3
  % Inhibition: 45.0%
[1]; 5 μg/day s.c.
  Tumor Size (mm3): 422.3 mm3
  % Inhibition: 67.7%
[2]
  In vitro relative inhibitory potency in comparison to MIA-602, SKOV-3: 1.15*
[3]
  In vitro relative inhibitory potency in comparison to MIA-602, MX-1: 2.793
[4]
  In vitro relative inhibitory potency in comparison to MIA-602, HCC-1806: 4.85
[5]
  In vitro relative inhibitory potency in comparison to MIA-602, OVCAR-3: 1.68*
[6]; 2.5 μg/day s.c.
  Tumor Growth %: 2073.0%
  % Inhibition: 22.4%
[6]; 5 μg/day s.c.
  Tumor Growth %: 1456.9%
  % Inhibition: 45.4%

## CCCC[C@H](NC(=O)[C@@H](NC(=O)[C@H](CC(=O)O)NC(=O)[C@H](CCC(N)=O)NC(=O)[C@H](CC(C)C)NC(=O)[C@H](CC(C)C)NC(=O)[C@H](CCCCN)NC(=O)[C@H](CCCNC(=N)N)NC(=O)[C@H](C)NC(=O)[C@H](CO)NC(=O)[C@H](CC(C)C)NC(=O)[C@H](CCC(N)=O)NC(=O)[C@H](CC)NC(=O)[C@H](CC(C)C)NC(=O)[C@@H](NC(=O)[C@H](CCCCN)NC(=O)[C@H](CCCNC(=N)N)NC(=O)[C@H](Cc1c(F)c(F)c(F)c(F)c1F)NC(=O)[C@H](CCCCNC(=N)N)NC(=O)[C@H](C)NC(=O)[C@@H](NC(=O)[C@H](Cc1ccc(Cl)cc1)NC(=O)[C@@H](NC(=O)[C@H](C)NC(=O)[C@H](CC(=O)O)NC(=O)[C@@H](CCCNC(=N)N)NC(=O)[C@H](Cc1ccc(O)cc1)NC(=O)CCCCCCCCCCCNC(=O)Cc1c(F)c(F)c(F)c(F)c1F)[C@@H](C)CC)[C@@H](C)O)C(C)C)[C@@H](C)CC)C(=O)N[C@H](CCCNC(=N)N)C(=O)N[C@@H](CCCCNC(=N)N)C(=O)NCCCCCCCCCCCC(N)=O [AVR-353, 5FPhAC-Ada-Tyr-DArg-Asp-Ala-Ile-Cpa-Thr-Ala-Har-5FPhe-Arg-Lys-Val-Leu-Abu-Gln-Leu-Ser-Ala-Arg-Lys-Leu-Leu-Gln-Asp-Ile-Nle-DArg-Har-Ada-NH2] ({Phenylacetyl(2,3,4,5,6-F5)-12Ado}-Y[dR]DAI[Phe(4-Cl)]TA[hArg][Phe(F5)]RKVL[Abu]QLSARKLLQDI[Nle][dR][hArg][12Ado]-NH2)
[1]; 2.5 μg/day s.c.
  Tumor Size (mm3): 1056.0 mm3
  % Inhibition: 19.1%
[1]; 5 μg/day s.c.
  Tumor Size (mm3): 910.7 mm3
  % Inhibition: 30.9%
[2]
  In vitro relative inhibitory potency in comparison to MIA-602, SKOV-3: 1.04*
[3]
  In vitro relative inhibitory potency in comparison to MIA-602, MX-1: 2.001
[4]
  In vitro relative inhibitory potency in comparison to MIA-602, HCC-1806: 9.396
[5]
  In vitro relative inhibitory potency in comparison to MIA-602, OVCAR-3: 1.55*
[6]; 2.5 μg/day s.c.
  Tumor Growth %: 1482.8%
  % Inhibition: 44.5%
[6]; 5 μg/day s.c.
  Tumor Growth %: 1257.3%
  % Inhibition: 52.9%
[6]; 10 μg/day s.c.
  Tumor Growth %: 1005.1%
  % Inhibition: 62.4%
